In patent US10046052B2, “Method and formulation for cold treatment in adults and children with increased safety” (priority 2010, dated 2018):
Like-named read-outs stand apart in the source and are kept apart here.

Test system: patients with cold, cough and other symptoms of respiratory infection (Upper Respiratory Infection, URI/cold)
Text: Representative Samples of Clinical Cases of Patients of Varying Ages Treated by a Doctor, with Non or Minimally Sedating Antihistamines for Cold, Cough and Other Symptoms of Respiratory Infection:

O=C(O)COCCN1CCN(C(c2ccccc2)c2ccc(Cl)cc2)CC1 (stereo not drawn) [Cetirizine]
relief of URI symptoms (Case 1: URI/cold, Cetirizine 10 mg QHS with Triamcinolone Nasal Spray): rapid relief of URI symptoms | relief of URI symptoms (Case 2: same patient as Case 1, URI/cold and Bronchitis, Cetirizine 10 mg QHS, already taking Triamcinolone Nasal Spray): rapid relief of URI symptoms | relief of URI symptoms (Case 3: same patient as Case 1, URI/cold, Cetirizine 10 mg QHS): rapid relief of URI symptoms | relief of URI symptoms (Case 8: URI/cold/Allergic Rhinitis, Cetirizine 10 mg QHS): rapid relief of URI symptoms | relief of URI and Bronchitis symptoms (Case 9: same patient as Case 8, URI/cold/Bronchitis, Allergic Rhinitis, Cetirizine 10 mg QHS and Amoxicillin Clavulanate): rapid relief of URI and Bronchitis symptoms | relief of URI symptoms (Case 14: URI, Cetirizine Liquid 2.5 mg QHS): rapid relief of URI symptoms

CC(C)(C(=O)O)c1ccc(C(O)CCCN2CCC(C(O)(c3ccccc3)c3ccccc3)CC2)cc1 (stereo not drawn) [Fexofenadine]
relief of URI symptoms (Case 4: URI/cold, Fexofenadine 180 mg QD with Triamcinolone Nasal Spray): rapid relief of URI symptoms | relief of Pharyngitis and Bronchitis symptoms (Case 10: Pharyngitis, Asthma, COPD, Fexofenadine 180 mg QD, Amoxicillin Clavulanate, Prednisone): rapid relief of Pharyngitis and Bronchitis symptoms | relief of URI and Sinusitis symptoms (Case 11: URI/cold, rule out Sinusitis, Fexofenadine 60 mg BID, Amoxicillin Clavulanate): rapid relief of URI and Sinusitis symptoms | relief of URI symptoms (Case 12: same patient as Case 11, Allergic Rhinitis/URI/cold, Fexofenadine 60 mg BID): rapid relief of URI symptoms | relief of URI symptoms (Case 13: same patient as Cases 11 and 12, URI/cold, Fexofenadine 60 mg BID): rapid relief of URI symptoms

O=C(O)COCCN1CCN([C@H](c2ccccc2)c2ccc(Cl)cc2)CC1 [Levocetirizine]
relief of URI symptoms (Case 5: child, URI/cold, Levocetirizine 2.5 mg at bedtime, Carbinoxamine with Dextromethorphan discontinued): rapid relief of URI symptoms | relief of cough (Case 6: same patient as Case 5, URI/cold, resumed Levocetirizine 2.5 mg at bedtime): rapid relief of cough | relief of URI symptoms (Case 7: same patient as Case 6, Pharyngitis, URI/cold, Levocetirizine 2.5 mg at bedtime, using Mometasone Nasal Spray, asthma inhaler, Montelukast): rapid relief of URI symptoms

CCOC(=O)N1CCC(=C2c3ccc(Cl)cc3CCc3cccnc32)CC1 [Loratidine]
relief of URI symptoms (Case 15: URI/Pharyngitis, Loratidine 10 mg QD, Azithromycin prescribed by Pediatrician): rapid relief of URI symptoms
